# Patent US8415342B2, “Besifloxacin ophthalmic composition for the treatment or control of infection” (Bausch & Lomb Incorporated, priority 2008, dated 2013)
# Where “and” joins values, the source holds several entries; their conditions need not be identical. Equal entries are not always repeated.
# Experiments:
# [1] = target: T1, S. pneumoniae topoisomerase IV (Streptococcus pneumoniae serotype 4, UniProt P72525+Q59961); format: biochemical; details: S. pneumoniae enzymes; concentration that produces 25% linearization of the DNA
# T1 sequence (P72525 1-823): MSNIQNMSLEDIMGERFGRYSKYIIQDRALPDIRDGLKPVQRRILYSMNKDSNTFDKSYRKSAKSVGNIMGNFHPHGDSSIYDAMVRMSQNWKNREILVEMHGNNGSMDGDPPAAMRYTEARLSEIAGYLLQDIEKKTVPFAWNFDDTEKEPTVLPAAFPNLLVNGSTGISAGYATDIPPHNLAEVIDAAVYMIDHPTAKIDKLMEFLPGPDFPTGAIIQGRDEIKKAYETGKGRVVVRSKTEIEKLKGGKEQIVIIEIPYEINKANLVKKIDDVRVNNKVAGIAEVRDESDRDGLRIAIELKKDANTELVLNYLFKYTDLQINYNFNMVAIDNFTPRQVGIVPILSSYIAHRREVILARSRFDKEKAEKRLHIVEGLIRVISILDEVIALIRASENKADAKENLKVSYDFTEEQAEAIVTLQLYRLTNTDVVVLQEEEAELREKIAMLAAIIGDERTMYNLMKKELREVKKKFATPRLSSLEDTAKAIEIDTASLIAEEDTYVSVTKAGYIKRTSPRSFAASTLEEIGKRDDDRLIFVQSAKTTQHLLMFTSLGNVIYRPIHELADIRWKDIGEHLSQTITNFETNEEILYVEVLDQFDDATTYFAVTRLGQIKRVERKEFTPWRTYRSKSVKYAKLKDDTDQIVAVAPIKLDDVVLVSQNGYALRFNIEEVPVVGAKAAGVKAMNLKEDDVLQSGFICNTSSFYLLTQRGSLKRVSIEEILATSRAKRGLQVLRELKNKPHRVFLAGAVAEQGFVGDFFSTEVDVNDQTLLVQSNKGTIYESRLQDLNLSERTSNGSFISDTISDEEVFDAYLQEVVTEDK
# T1 sequence (Q59961 1-647): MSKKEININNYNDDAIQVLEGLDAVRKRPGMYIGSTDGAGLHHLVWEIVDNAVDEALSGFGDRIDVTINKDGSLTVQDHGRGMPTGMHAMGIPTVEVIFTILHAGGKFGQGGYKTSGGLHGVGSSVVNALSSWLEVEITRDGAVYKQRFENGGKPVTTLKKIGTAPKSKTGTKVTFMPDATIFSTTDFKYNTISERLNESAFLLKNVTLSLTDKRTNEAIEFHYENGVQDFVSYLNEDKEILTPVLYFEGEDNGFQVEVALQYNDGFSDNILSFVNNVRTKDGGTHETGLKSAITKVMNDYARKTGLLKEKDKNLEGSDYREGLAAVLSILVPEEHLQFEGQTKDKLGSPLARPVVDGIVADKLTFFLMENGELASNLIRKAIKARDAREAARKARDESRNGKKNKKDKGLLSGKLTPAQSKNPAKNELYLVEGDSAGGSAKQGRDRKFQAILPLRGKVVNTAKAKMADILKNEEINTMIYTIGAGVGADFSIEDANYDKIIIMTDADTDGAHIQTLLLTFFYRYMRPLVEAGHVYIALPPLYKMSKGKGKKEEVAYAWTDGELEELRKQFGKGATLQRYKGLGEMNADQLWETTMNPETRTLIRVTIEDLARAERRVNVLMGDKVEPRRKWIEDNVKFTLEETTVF
# [2] = test system: S. aureus, S. pneumoniae, and H. influenzae; assay: Time-kill studies; format: cell-based; details: S. pneumoniae, and H. influenzae (data not shown)
# Text: The success of in vivo antimicrobial action depends to a large extent on the host's defense mechanisms, which ultimately sequester and kill the microorganisms that have been reduced by the bacteriostatic/bactericidal action of the antibacterial agent. Thus, it is also of interest to profile the bactericidal activity of antimicrobial agents. The assessment of in vitro bactericidal activity can be accomplished in multiple ways, for example, the time-kill method or the determination of the minimum bactericidal concentration (MBC). […] Bactericidal agents are characterized by low MBC:MIC ratios.
# [3] = test system: bacterial conjunctivitis; assay: Study 373: besifloxacin ophthalmic suspension vs vehicle, TID 5 days; details: N = 60; for Clinical Resolution (2 indices), Resolution / Clinical Resolution (3 indices), No / Clinical Resolution (3 indices), Yes / Microbial Eradication, No / Microbial Eradication, Yes: ITT culture confirmed; for Clinical Resolution (2 indices), Non-resolution: missing or discontinued imputed as non-resolution
# [4] = target: T1, S. pneumoniae topoisomerase IV; assay: biochemical; format: biochemical
# [5] = test system: baseline pathogens of bacterial conjunctivitis patients; assay: MIC of baseline clinical trial isolates, Studies 373, 433, 434 (all species); format: cell-based
# [6] = test system: bacterial conjunctivitis; assay: Study 433: besifloxacin ophthalmic suspension vs vehicle, TID 5 days; format: in vivo, human; details: N = 199; for Clinical Resolution (2 indices), No / Clinical Resolution (2 indices), Yes: mITT culture confirmed as randomized; for Microbial Eradication, No / Microbial Eradication, Yes: missing or discontinued imputed as no
# [7] = target: T2, E. coli DNA gyrase (Escherichia coli, UniProt P0AES4+P0AES6); assay: Catalytic inhibition of purified DNA gyrase; format: biochemical
# T2 sequence (P0AES4 whole entry, one chain of several): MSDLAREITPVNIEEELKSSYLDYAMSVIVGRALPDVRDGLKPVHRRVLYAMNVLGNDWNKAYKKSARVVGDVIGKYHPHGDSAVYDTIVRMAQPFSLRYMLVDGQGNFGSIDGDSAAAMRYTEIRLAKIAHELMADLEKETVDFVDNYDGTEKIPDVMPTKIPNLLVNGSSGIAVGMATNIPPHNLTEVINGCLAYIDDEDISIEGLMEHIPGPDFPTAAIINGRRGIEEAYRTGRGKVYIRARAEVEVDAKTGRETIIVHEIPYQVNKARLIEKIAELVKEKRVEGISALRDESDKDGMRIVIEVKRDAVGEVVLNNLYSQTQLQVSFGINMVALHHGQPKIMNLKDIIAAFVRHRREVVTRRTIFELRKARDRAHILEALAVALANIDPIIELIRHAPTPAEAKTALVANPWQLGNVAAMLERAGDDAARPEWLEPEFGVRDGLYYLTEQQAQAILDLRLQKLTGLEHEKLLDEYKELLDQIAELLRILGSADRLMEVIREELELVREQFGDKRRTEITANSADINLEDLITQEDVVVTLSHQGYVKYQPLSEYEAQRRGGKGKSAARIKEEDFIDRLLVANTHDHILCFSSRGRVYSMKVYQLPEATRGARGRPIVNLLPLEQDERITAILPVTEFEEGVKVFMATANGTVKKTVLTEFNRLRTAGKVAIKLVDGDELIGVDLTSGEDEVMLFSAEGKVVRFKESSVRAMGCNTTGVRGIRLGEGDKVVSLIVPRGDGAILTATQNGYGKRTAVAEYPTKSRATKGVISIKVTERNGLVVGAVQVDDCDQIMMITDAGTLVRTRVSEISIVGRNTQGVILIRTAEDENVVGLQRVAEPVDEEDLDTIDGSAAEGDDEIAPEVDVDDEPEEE
# [8] = target: E. coli topoisomerase IV (Escherichia coli, UniProt P0AFI2+P20083); assay: Cleavable complex stimulation (CC25), topoisomerase IV; format: biochemical; details: E. coli enzymes; concentration that produces 25% linearization of the DNA
# Sequence of E. coli topoisomerase IV (P0AFI2 whole entry): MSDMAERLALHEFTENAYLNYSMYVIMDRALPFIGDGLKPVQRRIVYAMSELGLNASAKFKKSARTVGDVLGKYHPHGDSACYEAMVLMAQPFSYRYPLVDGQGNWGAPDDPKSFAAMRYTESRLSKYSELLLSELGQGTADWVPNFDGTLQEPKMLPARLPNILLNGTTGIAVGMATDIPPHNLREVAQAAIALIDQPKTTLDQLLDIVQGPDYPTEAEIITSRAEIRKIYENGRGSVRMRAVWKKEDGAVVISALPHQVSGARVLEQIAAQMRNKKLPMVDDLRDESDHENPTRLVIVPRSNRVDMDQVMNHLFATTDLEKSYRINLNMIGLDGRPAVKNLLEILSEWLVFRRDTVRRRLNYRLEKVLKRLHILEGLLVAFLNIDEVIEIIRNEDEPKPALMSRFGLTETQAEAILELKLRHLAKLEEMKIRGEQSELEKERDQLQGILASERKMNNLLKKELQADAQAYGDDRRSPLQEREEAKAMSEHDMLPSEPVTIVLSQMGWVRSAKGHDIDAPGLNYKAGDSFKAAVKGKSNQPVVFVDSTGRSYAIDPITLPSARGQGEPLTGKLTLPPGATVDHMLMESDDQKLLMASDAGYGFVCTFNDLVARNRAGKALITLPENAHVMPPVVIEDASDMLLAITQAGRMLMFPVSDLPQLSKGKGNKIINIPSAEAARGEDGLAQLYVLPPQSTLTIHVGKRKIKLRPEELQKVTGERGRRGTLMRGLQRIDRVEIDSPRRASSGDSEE
# Sequence of E. coli topoisomerase IV (P20083 whole entry): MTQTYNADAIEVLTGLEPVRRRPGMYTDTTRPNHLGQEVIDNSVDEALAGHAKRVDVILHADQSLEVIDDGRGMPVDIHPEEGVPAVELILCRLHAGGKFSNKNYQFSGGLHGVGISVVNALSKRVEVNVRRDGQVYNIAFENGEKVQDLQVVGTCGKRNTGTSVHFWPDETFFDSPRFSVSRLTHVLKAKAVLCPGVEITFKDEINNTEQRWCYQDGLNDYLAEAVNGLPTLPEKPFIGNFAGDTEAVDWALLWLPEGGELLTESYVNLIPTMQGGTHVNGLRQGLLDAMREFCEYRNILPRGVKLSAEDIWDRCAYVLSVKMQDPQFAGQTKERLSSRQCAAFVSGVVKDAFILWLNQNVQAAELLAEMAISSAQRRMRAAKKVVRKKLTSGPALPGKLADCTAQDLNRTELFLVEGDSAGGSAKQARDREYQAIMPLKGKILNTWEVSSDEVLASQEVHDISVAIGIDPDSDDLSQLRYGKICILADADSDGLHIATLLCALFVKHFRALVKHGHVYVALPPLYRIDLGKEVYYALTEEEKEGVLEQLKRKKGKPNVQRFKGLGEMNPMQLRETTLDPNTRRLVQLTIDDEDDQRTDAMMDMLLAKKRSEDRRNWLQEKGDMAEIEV
# [9] = target: T2, E. coli DNA gyrase; assay: Cleavable complex stimulation (CC25), DNA gyrase; format: biochemical; details: E. coli enzymes; concentration that produces 25% linearization of the DNA
# [10] = target: S. pneumoniae DNA gyrase (Streptococcus pneumoniae serotype 4, UniProt P0A4L9+P72524); assay: Catalytic inhibition of purified DNA gyrase; format: biochemical
# Sequence of S. pneumoniae DNA gyrase (P72524 whole entry): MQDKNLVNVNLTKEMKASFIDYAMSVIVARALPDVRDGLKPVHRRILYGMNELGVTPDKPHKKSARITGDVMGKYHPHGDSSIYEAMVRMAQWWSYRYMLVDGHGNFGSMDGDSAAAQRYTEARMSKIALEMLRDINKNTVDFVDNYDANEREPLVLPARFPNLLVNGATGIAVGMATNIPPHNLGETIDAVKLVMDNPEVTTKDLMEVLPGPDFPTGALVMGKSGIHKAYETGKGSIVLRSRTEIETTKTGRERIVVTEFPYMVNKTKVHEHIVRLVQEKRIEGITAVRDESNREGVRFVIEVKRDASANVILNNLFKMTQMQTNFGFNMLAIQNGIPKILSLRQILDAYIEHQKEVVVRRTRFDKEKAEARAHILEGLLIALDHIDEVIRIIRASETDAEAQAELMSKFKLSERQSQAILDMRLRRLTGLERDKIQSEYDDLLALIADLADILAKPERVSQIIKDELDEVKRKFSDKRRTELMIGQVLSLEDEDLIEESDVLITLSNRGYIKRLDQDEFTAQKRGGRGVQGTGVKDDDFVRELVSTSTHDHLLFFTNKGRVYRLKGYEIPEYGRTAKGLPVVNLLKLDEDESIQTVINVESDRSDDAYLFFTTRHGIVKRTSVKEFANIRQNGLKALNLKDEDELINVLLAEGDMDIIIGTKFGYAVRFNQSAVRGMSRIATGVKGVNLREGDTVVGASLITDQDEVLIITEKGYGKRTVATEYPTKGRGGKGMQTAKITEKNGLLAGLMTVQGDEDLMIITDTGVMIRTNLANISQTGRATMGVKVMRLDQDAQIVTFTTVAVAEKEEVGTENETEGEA
# Sequence of S. pneumoniae DNA gyrase (P0A4L9 whole entry): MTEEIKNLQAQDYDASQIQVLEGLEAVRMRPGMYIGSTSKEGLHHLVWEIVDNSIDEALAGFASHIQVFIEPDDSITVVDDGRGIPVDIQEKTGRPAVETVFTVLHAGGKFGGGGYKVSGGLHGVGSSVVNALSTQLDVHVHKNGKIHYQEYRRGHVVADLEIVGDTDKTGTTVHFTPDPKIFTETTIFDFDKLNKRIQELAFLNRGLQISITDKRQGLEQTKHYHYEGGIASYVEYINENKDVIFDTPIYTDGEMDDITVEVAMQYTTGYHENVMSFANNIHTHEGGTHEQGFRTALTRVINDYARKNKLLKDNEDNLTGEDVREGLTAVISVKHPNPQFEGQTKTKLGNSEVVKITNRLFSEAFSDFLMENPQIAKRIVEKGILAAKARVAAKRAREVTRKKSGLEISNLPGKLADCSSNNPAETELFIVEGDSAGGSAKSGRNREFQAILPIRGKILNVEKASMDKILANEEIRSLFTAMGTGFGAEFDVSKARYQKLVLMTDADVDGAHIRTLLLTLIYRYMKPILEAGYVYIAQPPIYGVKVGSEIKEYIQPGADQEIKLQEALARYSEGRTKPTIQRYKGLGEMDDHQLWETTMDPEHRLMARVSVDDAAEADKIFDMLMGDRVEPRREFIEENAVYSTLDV
# [11] = Visit 3 (Day 8 or 9), primary endpoint
# [12] = 1324 clinical isolates of all species, Studies 373, 433, 434
# [13] = Gram-negative bacteria (438 clinical isolates)
# [14] = Gram-positive bacteria (886 clinical isolates)
# [15] = Visit 2 (Day 5 ± 1), primary endpoint
structure (smiles),measurement,setting,value
"N[C@@H]1CCCCN(c2c(F)cc3c(=O)c(C(=O)O)cn(C4CC4)c3c2Cl)C1 [Besifloxacin, (R)-(+)-(3-amino-2,3,4,5,6,7-hexahydro-1H-azepin-1-yl)-8-chloro-1-cyclopropyl-6-fluoro-1,4,-dihydro-4-oxo-3-quinolinecarboxylic acid]",CC25 Topo IV,[1],1 μM and 0.4 μg/mL
same,bactericidal activity in time-kill studies,[2],confirmed the bactericidal activity
same,"Clinical Resolution (2 indices), Resolution",[3]; Visit 2 (Day 4 ± 1),20 (33.3) n (%)
same,"Clinical Resolution (3 indices), No",[3]; Visit 2 (Day 4 ± 1),46 (76.7) n (%)
same,"Clinical Resolution (3 indices), Yes",[3]; Visit 2 (Day 4 ± 1),14 (23.3) n (%)
same,"Microbial Eradication, No",[3]; Visit 2 (Day 4 ± 1),6 (10.0) n (%)
same,"Microbial Eradication, Yes",[3]; Visit 2 (Day 4 ± 1),54 (90.0) n (%)
same,"Clinical Resolution (2 indices), Non-resolution",[3]; Visit 2 (Day 4 ± 1),40 (66.7) n (%)
same,"Clinical Resolution (2 indices), Resolution",[3]; Visit 3 (Day 8 or 9),44 (73.3) n (%)
same,"Clinical Resolution (3 indices), No",[3]; Visit 3 (Day 8 or 9),23 (38.3) n (%)
same,"Microbial Eradication, No",[3]; Visit 3 (Day 8 or 9),6 (10.0) n (%)
same,"Clinical Resolution (2 indices), Non-resolution",[3]; Visit 3 (Day 8 or 9),16 (26.7) n (%)
same,"Clinical Resolution (3 indices), Yes",[3]; [11],37 (61.7) n (%)
same,"Microbial Eradication, Yes",[3]; [11],54 (90.0) n (%)
same,IC50,"[4]; IC50 Topo IV, S. pneumoniae enzymes",1000 nM and 1020 nM
same,potency relative to ciprofloxacin and moxifloxacin (catalytic inhibition and cleavable complex stimulation),[4]; S. pneumoniae topoisomerase IV,2.5- to 5.0 fold
same,MIC50,[5]; [12],0.06 µg/mL
same,MIC90,[5]; [12],0.25 µg/mL
same,MIC50,[5]; [13],0.03 µg/mL
same,MIC90,[5]; [13],0.5 µg/mL
same,MIC50,[5]; [14],0.06 µg/mL
same,MIC90,[5]; [14],0.25 µg/mL
same,MIC90,[5]; clinical isolates from Asia,1 µg/mL
same,"Clinical Resolution (2 indices), No",[6]; Visit 2 (Day 5 ± 1),109 (54.8) n (%)
same,"Microbial Eradication, No",[6]; Visit 2 (Day 5 ± 1),17 (8.5) n (%)
same,"Clinical Resolution (2 indices), Yes",[6]; [15],90 (45.2) n (%)
same,"Microbial Eradication, Yes",[6]; [15],182 (91.5) n (%)
same,"Clinical Resolution (2 indices), No",[6]; Visit 3 (Day 8 or 9),31 (15.6) n (%)
same,"Clinical Resolution (2 indices), Yes",[6]; Visit 3 (Day 8 or 9),168 (84.4) n (%)
same,"Microbial Eradication, No",[6]; Visit 3 (Day 8 or 9),23 (11.6) n (%)
same,"Microbial Eradication, Yes",[6]; Visit 3 (Day 8 or 9),176 (88.4) n (%)
same,IC50,[7]; E. coli enzymes,2300 nM and 2540 nM
same,inhibitory concentration for gyrase lower than for topoisomerase IV,[7]; E. coli enzymes,10 fold
same,catalytic inhibition and cleavable complex stimulation relative to comparators,[7]; purified E. coli DNA gyrase and topoisomerase IV,equivalent to that of the ciprofloxacin and moxifloxacin comparators
same,CC25 Topo IV,[8],1.4 μM and 0.6 μg/mL
same,CC25 Gyrase,[9],0.1 μM and 0.04 μg/mL
same,potency relative to ciprofloxacin and moxifloxacin (catalytic inhibition and cleavable complex stimulation),[10]; S. pneumoniae DNA gyrase,4- to 16 fold
same,IC50,[10]; S. pneumoniae enzymes,2500 nM and 2540 nM
same,difference between inhibitory concentrations for DNA gyrase and topoisomerase IV,[10]; S. pneumoniae enzymes,2.5 fold
